Values quoted from earlier work, collected in US20030219468A1 (priority 2002, published 2003).

Experiments:
[1] = cold water
[2] = sorbic acid and its salts
Plasmodium berghei = settings: mice, toward Plasmodium berghei

| Compound | solubility [1] | microbiostatic antimycotic activity [2] | immunizing activity (Plasmodium berghei) |
| --- | --- | --- | --- |
| C/C=C/C=C/C(=O)O [Sorbic acid, trans,trans-2,4-hexadienoic acid] | only slightly soluble | very high microbiostatic antimycotic activity |  |
| Curdlan |  |  | immunizing activity |
